Test results reported in US20240246905A1 (University of Leicester, priority 2021, published 2024).
In brackets after ≈: the same amount, converted by molar mass.

Legend:
Escherichia coli DH5α = assay: Disc diffusion (Kirby-Bauer), zone of inhibition; assay type: cell-based; settings: Escherichia coli DH5α; 500 μg/mL; '/' = no zone; read-out: Zone of inhibition
How it was run: (§1)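 Zones of inhibition recorded after 24 h at 37 °C on Mueller-Hinton agar. Agar was inoculated with 1 in 200 diluted 18 h broth cultures, and discs carried 50 μL of antibiotic. Method follows CLSI 2017 disc diffusion.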

[1] = system: Staphylococcus aureus 15981; assay: Disc diffusion (Kirby-Bauer), zone of inhibition; assay type: cell-based; settings: Staphylococcus aureus 15981; 500 μg/mL; '/' = no zone; read-out: Zone of inhibition
How it was run: as §1

HEK293 cells = assay: Cytotoxicity assay, resazurin (CO-ADD)
Procedure: The cytotoxicity studies were performed by CO-ADD (The Community for Open Antimicrobial Drug Discovery), funded by the Wellcome trust (UK) and the University of Queensland, Australia.^(28) In this study, the compounds were screened against a human embryonic kidney cell line, HEK293, at a set concentration of 32 μg/mL.
DMEM supplemented with 10% FBS was used as growth media and the cells were incubated together with the compounds for 20 hours at 37° C. in 5% CO2.
Cytotoxicity (or cell viability) was measured by fluorescence, excitation: 560/10 nm, emission: 590/10 nm (F560/590), after addition of 5 μL of 25 μg/mL Resazurin (2.3 μg/mL final concentration) and after incubation for further 3 h at 37° C. in 5% CO2. The fluorescence intensity was measured using a Tecan M1000 Pro monochromator plate reader, using automatic gain calculation CC50 (concentration at 50% cytotoxicity) were calculated by curve fitting the inhibition values vs. log(concentration) using sigmoidal dose-response function, with variable fitting values for bottom, top and slope. The curve fitting was implemented using Pipeline Pilot's dose-response component.

[2] = system: various Staphylococcus aureus strains; assay: Disc diffusion, Staphylococcus aureus strain study; assay type: cell-based; settings: Staphylococcus aureus, 500 μg/mL
From the text: At this point in the study it was decided to perform a disc diffusion assay study on 50 S. aureus strains. […] Moreover, by employing a range of mutant strains of S. aureus with specific gene-deletions, it was believed that if particular strains were resistant to the lead compounds, it could provide insights on the likely protein target of the lead antibiotics. However, all six of the compounds utilized in this study were able to inhibit growth of all 50 strains of S. aureus assayed at the chosen concentration of 500 μg/mL concentration (Table 5).
E. coli DH5α, P. aeruginosa PA01 and the 53 S. aureus strains were recovered from frozen (−80° C.) glycerol (15% v/v) stocks on Lysogeny agar (LA)—Gram negative and trypticase soy agar (TSA)—plates at 37° C. for 24 hours. Single colonies were placed in either 3 mL Lysogeny broth (LB)—Gram negative or trypticase soy broth (TSB)—Gram positive and incubated at 37° C., 250 rpm for 18 hours.
The antibiotic activity was determined using a Kirby-Bauer method according to Clinical Standard Laboratory Institute (CSLI) Guidelines (2017). Briefly, 180 μL of a 1 in 200 dilution (in LB or TSB) of overnight cultures of selected Gram negative and Gram positive bacteria were applied to an agar plate containing the solid growth medium, Mueller-Hinton agar (MHA). Sterile discs, inoculated with 50 μL of antibiotic, were first added to the agar plate before the plates were incubated for 24 hours at 37° C. Following incubation, the zone of inhibition (if it existed) was recorded.

red blood cells = assay: Hemolysis assay (CO-ADD); assay type: cell-based; settings: 32 μg/mL highest concentration tested
From the text: A problem often encountered by emerging drugs is hemolysis, also known as drug-induced immune hemolytic anemia.

MSSA 476 [3] = assay: MIC, broth micro-dilution; assay type: cell-based, Staphylococcus aureus; settings: Staphylococcus aureus, MSSA, read-out: MIC
How it was run: (§2)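 S. aureus cultures grown 18 h in TSB were used to inoculate twofold antibiotic series in TSB at 5×10^5 CFU/mL, per CLSI guidelines. Growth curves read by optical density at 12-min intervals for 18 h at 37 °C were fitted sigmoidally to calculate MIC.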

MRSA 252 [4] = assay: MIC, broth micro-dilution; assay type: cell-based, Staphylococcus aureus; settings: Staphylococcus aureus, read-out: MIC
How it was run: as §2

MSSA 476 [5] = assay: Disc diffusion (Kirby-Bauer), zone of inhibition; assay type: cell-based, Staphylococcus aureus; settings: Staphylococcus aureus, 500 μg/mL, '/' = no zone, read-out: Zone of inhibition
How it was run: as §1

MRSA 252 [6] = assay: Disc diffusion (Kirby-Bauer), zone of inhibition; assay type: cell-based, Staphylococcus aureus; settings: Staphylococcus aureus, 500 μg/mL, '/' = no zone, read-out: Zone of inhibition
How it was run: as §1

[C-]#[N+]/C=C/c1ccc(NC(C)=O)cc1/C=C/c1ccccc1 [Compound 41, N-(4-((E)-2-Isocyanovinyl)-3-((E)-styryl)phenyl)acetamide]
zone of inhibition at 500 µg/mL (Escherichia coli DH5α): 20 mm | zone of inhibition at 500 µg/mL [1]: 34 mm | Concentration toxic to HEK 293 cells (HEK293 cells; HEK 293): >32000 ng/mL | toxicity towards the HEK293 cell line (in words) (HEK293 cells; set concentration of 32 μg/mL): no toxicity | zone of inhibition at 500 µg/mL ([2]; strain ASARM 61): 28 mm | zone of inhibition at 500 µg/mL ([2]; strain ASARM 70): 32 mm | zone of inhibition at 500 µg/mL ([2]; strain ASARM 71): 32 mm | zone of inhibition at 500 µg/mL ([2]; strain ASARM 72): 30 mm | zone of inhibition at 500 µg/mL ([2]; strain ASARM 73): 27 mm | zone of inhibition at 500 µg/mL ([2]; strain ASARM 75): 26 mm | zone of inhibition at 500 µg/mL ([2]; strain ASARM 76): 27 mm | zone of inhibition at 500 µg/mL ([2]; strain ASARM 77): 25 mm | zone of inhibition at 500 µg/mL ([2]; strain ASARM 79): 29 mm | zone of inhibition at 500 µg/mL ([2]; strain ASARM 80): 30 mm | zone of inhibition at 500 µg/mL ([2]; strain EOE 3): 26 mm | zone of inhibition at 500 µg/mL ([2]; strain EOE 23): 26 mm | zone of inhibition at 500 µg/mL ([2]; strain EOE 30): 30 mm | zone of inhibition at 500 µg/mL ([2]; strain EOE 35): 28 mm | zone of inhibition at 500 µg/mL ([2]; strain EOE 41): 26 mm | zone of inhibition at 500 µg/mL ([2]; strain EOE 42): 30 mm | zone of inhibition at 500 µg/mL ([2]; strain EOE 45): 30 mm | zone of inhibition at 500 µg/mL ([2]; strain EOE 52): 28 mm | zone of inhibition at 500 µg/mL ([2]; strain EOE 54): 26 mm | zone of inhibition at 500 µg/mL ([2]; strain EOE 57): 30 mm | zone of inhibition at 500 µg/mL ([2]; strain S139_7_7): 22 mm | zone of inhibition at 500 µg/mL ([2]; strain S197_1_1): 32 mm | zone of inhibition at 500 µg/mL ([2]; strain S197_1_8): 30 mm | zone of inhibition at 500 µg/mL ([2]; strain S197_1_9): 32 mm | zone of inhibition at 500 µg/mL ([2]; strain S197_1_10): 31 mm | zone of inhibition at 500 µg/mL ([2]; strain S295_1_1): 29 mm | zone of inhibition at 500 µg/mL ([2]; strain S295_1_2): 25 mm | zone of inhibition at 500 µg/mL ([2]; strain S295_1_3): 27 mm | zone of inhibition at 500 µg/mL ([2]; strain S364_5_11): 27 mm | zone of inhibition at 500 µg/mL ([2]; strain S364_5_12): 28 mm | zone of inhibition at 500 µg/mL ([2]; strain Sa_TPS 3026): 28 mm | zone of inhibition at 500 µg/mL ([2]; strain Sa_TPS 3072): 26 mm | zone of inhibition at 500 µg/mL ([2]; strain Sa_TPS 3092): 28 mm | zone of inhibition at 500 µg/mL ([2]; strain Sa_TPS 3097): 28 mm | zone of inhibition at 500 µg/mL ([2]; strain Sa_TPS 3103): 28 mm | zone of inhibition at 500 µg/mL ([2]; strain Sa_TPS 3104): 28 mm | zone of inhibition at 500 µg/mL ([2]; strain Sa_TPS 3106): 36 mm | zone of inhibition at 500 µg/mL ([2]; strain Sa_TPS 3118): 32 mm | zone of inhibition at 500 µg/mL ([2]; strain Sa_TPS 3133): 28 mm | zone of inhibition at 500 µg/mL ([2]; strain Sa_TPS 3134): 26 mm | zone of inhibition at 500 µg/mL ([2]; strain USFL 008): 28 mm | zone of inhibition at 500 µg/mL ([2]; strain USFL 009): 27 mm | zone of inhibition at 500 µg/mL ([2]; strain USFL 012): 32 mm | zone of inhibition at 500 µg/mL ([2]; strain USFL 016): 29 mm | zone of inhibition at 500 µg/mL ([2]; strain USFL 018): 32 mm | zone of inhibition at 500 µg/mL ([2]; strain USFL 020): 28 mm | zone of inhibition at 500 µg/mL ([2]; strain USFL 021): 29 mm | zone of inhibition at 500 µg/mL ([2]; strain USFL 028): 29 mm | zone of inhibition at 500 µg/mL ([2]; strain USFL 035): 30 mm | zone of inhibition at 500 µg/mL ([2]; strain USFL 054): 30 mm | zone of inhibition at 500 µg/mL ([2]; strain not given): 30 mm | Hemolytic activity (HC10) (red blood cells): >32 µg/mL | MIC (MSSA 476 [3]): 8 µg/mL (≈ 27.7 µM) | MIC (MRSA 252 [4]): 6 µg/mL (≈ 20.8 µM) | zone of inhibition at 500 µg/mL (MSSA 476 [5]): 34 mm | zone of inhibition at 500 µg/mL (MRSA 252 [6]): 32 mm
